# According to publication doi:10.1101/2024.08.19.608619, “Discovery of potent SARS-CoV-2 nsp3 macrodomain inhibitors uncovers lack of translation to cellular antiviral response” (bioRxiv, 2024):
# pEC50, pIC50: −log10 of the molar value. “And” between values parts separate entries of the source, which are not always exact repeats. Equal entries are not always repeated.
# Columns and labels:
# H1 (h) = molecular target: T1, H1 (h) (Homo sapiens, UniProt P35367); experiment: In vitro CEREP profiling, H1 (h) (antagonist radioligand); type: binding; details: test compound concentration 10 uM
# T1 construct: purchased Eurofins Cerep (SafetyScreen44), recognised from the panel format
# Description: (§1) Supplement media-1.zip/Safety_Panel_Profile.csv, table | column: perc_inhibition
# beta1 (h) = molecular target: T2, beta1 (h) (Homo sapiens, UniProt P08588); experiment: In vitro CEREP profiling, beta1 (h) (agonist radioligand); type: binding; details: test compound 10 uM
# T2 construct: purchased Eurofins Cerep (SafetyScreen44), recognised from the panel format
# Description: as §1
# [1] = molecular target: T3, N neuronal alpha4beta2 (h) (Homo sapiens, UniProt P17787+P43681); experiment: In vitro CEREP profiling, N neuronal alpha4beta2 (h) (agonist radioligand); type: binding; details: test compound concentration 10 uM
# T3 construct: purchased Eurofins Cerep (SafetyScreen44), recognised from the panel format
# Description: as §1
# V1a (h) = molecular target: T4, V1a (h) (Homo sapiens, UniProt P37288); experiment: In vitro CEREP profiling, V1a (h) (agonist radioligand); type: binding; details: test compound concentration 10 uM
# T4 construct: purchased Eurofins Cerep (SafetyScreen44), recognised from the panel format
# Description: as §1
# 5-HT1B (h) = molecular target: T5, 5-HT1B (h) (Homo sapiens, UniProt P28222); experiment: In vitro CEREP profiling, 5-HT1B (h) (antagonist radioligand); type: binding; details: test compound concentration 10 uM
# T5 construct: purchased Eurofins Cerep (SafetyScreen44), recognised from the panel format
# Description: as §1
# [2] = In vitro dog liver microsomal stability; type: in vitro ADME
# Description: Supplement media-1.zip/Hepatic_Microsomal_Stability.csv, table | column: clint; t_half
# SARS-CoV-2 nsp3-mac1 = SARS-CoV-2 nsp3-mac1 (Severe acute respiratory syndrome coronavirus 2, UniProt P0DTD1); experiment: biochemical
# Nsp3-mac1 = Nsp3-mac1 (Severe acute respiratory syndrome coronavirus 2, UniProt P0DTD1); experiment: ADPr hydrolase assay (LC-MS/MS); type: biochemical, SARS-CoV-2; details: Nsp3-mac1 200 nM, αNAD+ 8 μM
# Description: ADPr hydrolase activity assay was conducted in 96-well plate with pre-dispensed compounds in 8-point dose response starting from 4 μM (control wells were backfilled with DMSO). […] Nsp3-mac1 200 nM in final assay concentration was added to all wells besides “NAD+ alone” well. The plate was centrifuged at 1,500 rpm for 1 min, and then Incubated at room temperature for 15 min. After incubation, αNAD+ in final concentration of 8 μM were added to each well, and the plate was centrifuged again for 1 min. Then, the plate was incubated under shaking at room temperature for 2.45 h, followed by freezing at −80°C until LC-MS/MS analysis.
# A 30-μl sample aliquot was mixed with 90 μl of methanol and 1μl of 50 μM 15N5-AMP (an internal standard). The mix was shaken for 10 min, then centrifuged (~21,000 g) for 5 min to precipitate the protein. […]
# Mass detection was carried out using electrospray ionization in the positive mode. […] Analytes were detected using multiple reaction monitoring (MRM, m/z) with the following precursor and fragment masses at selected collision energy (eV, indicated in brackets): 560 > 136 (34) and 560 > 348 ([16]) for ADPR, 664 > 524 ([15]) and 664 > 541.7 ([15]) for αNAD+, 353.1 > 97 ([28]) and 353.1 > 141 ([20]) for […] (IS) m/z. […]
# [3] = Vero E6/TMPRSS2 cytotoxicity with P-gp inhibitor; type: cell-based; details: African green monkey, Vero E6/TMPRSS2 cells, with P-gp inhibitor (name and concentration not stated)
# Description: (§2) Supplement media-1.zip/Cytotoxicity.csv, table | column: cc10; cc50; perc_min_measured; perc_max_measured
# in vitro = details: human
# MDR1 = experiment: Permeability Papp (AB) MDR1/MDCKII; details: dog; for Papp A→B: A to B; for Papp B→A: B to A
# hERG = hERG (Homo sapiens, UniProt Q12809); experiment: In vitro CEREP profiling, Potassium Channel hERG (human)- [3H] Dofetilide; type: binding; parameters: purchased Eurofins Cerep (SafetyScreen44), recognised from the panel format; details: hERG potassium channel binding assay, probe [3H] Dofetilide, test compound concentration 10 uM, read-out: perc_inhibition, % inhibition of the binding of a ligand specific for each target
# Description: as §1
# SARS-CoV-2 = experiment: Antiviral effect in iPSC-derived pneumocyte system; type: cell-based; details: iPSC pneumocytes SARS-CoV-2 antiviral effect
# iPSC pneumocytes = iPSC pneumocytes cytotoxicity; type: cell-based; details: protocol iPSC pneumocytes cytotoxicity
# Description: as §2
# [4] = read-out: perc_inhibition (% inhibition of the binding of a ligand specific for each target)
# T2 sequence (P08588 whole entry): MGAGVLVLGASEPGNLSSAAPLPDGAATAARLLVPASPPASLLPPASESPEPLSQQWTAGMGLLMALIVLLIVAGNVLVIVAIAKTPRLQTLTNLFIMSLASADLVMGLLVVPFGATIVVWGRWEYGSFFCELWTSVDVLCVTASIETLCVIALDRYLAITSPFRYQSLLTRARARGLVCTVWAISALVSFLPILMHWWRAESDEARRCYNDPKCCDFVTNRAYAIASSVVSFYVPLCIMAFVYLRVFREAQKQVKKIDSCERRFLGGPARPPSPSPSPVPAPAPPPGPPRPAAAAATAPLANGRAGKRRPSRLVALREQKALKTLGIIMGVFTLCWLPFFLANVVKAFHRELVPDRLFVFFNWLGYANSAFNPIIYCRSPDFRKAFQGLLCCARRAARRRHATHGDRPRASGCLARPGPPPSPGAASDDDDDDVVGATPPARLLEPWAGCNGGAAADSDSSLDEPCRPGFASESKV
# T5 sequence (P28222 whole entry): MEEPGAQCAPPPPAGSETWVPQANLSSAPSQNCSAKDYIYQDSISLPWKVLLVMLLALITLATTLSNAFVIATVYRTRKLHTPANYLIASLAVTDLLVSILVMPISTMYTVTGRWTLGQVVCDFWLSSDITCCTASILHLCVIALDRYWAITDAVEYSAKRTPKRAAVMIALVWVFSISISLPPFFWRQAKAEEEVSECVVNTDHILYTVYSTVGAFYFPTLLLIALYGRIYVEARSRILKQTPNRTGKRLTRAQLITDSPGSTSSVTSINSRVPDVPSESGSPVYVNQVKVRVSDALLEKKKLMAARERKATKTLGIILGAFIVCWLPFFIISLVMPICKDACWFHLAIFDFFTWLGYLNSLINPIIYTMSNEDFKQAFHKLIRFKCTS
# T3 sequence (P43681 29-627 limits assumed): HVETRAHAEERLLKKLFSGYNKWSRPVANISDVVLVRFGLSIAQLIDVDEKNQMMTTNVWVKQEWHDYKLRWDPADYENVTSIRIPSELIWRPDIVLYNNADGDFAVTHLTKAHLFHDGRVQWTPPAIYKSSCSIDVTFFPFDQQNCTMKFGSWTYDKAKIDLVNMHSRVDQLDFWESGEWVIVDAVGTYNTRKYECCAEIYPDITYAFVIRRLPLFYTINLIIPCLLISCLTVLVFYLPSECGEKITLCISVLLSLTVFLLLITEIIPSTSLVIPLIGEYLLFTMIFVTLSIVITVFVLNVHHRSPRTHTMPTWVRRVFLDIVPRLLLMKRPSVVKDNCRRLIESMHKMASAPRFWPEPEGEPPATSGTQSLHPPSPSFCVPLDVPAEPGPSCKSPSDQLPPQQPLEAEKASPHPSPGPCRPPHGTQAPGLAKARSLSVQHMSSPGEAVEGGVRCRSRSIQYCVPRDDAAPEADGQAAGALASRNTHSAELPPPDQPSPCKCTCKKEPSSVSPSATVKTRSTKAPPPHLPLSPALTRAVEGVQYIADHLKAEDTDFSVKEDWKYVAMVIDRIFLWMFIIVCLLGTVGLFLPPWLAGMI
# T3 sequence (P17787 26-502): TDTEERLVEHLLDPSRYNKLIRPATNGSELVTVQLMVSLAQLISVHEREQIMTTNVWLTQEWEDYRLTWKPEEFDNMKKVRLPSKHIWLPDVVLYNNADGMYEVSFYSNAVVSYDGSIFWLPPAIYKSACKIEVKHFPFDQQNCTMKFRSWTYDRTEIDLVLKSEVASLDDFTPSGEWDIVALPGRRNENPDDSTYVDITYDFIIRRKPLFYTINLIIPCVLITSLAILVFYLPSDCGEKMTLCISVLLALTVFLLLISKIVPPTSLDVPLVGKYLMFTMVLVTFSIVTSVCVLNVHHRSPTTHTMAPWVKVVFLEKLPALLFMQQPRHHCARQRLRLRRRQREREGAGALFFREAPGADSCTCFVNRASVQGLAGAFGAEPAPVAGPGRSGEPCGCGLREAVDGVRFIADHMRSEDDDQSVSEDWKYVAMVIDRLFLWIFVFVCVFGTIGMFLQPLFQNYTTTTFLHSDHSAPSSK
# T1 sequence (P35367 whole entry): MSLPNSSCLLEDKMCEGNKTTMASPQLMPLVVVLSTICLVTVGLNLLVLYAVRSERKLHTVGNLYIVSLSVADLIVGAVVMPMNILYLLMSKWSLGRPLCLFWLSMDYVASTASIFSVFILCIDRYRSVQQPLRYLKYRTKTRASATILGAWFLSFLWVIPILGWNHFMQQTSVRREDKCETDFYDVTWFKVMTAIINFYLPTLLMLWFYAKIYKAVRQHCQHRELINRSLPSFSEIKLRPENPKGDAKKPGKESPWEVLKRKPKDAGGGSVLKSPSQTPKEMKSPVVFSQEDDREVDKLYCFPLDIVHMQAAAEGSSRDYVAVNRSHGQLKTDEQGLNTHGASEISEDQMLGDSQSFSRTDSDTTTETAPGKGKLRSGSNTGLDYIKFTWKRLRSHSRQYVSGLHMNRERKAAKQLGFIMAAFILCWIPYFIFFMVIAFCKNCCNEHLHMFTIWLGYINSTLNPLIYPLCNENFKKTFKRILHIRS
# T4 sequence (P37288 whole entry): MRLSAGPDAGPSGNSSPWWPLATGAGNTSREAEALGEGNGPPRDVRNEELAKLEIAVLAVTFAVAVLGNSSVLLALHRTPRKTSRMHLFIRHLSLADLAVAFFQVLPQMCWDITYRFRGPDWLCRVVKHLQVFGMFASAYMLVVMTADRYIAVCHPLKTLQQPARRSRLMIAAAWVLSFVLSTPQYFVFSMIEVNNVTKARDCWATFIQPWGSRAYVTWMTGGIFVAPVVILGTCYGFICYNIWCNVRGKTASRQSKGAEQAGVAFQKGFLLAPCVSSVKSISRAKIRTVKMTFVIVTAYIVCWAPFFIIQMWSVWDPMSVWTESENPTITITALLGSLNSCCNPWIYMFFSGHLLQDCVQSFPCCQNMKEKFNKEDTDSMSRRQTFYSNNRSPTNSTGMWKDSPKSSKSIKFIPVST
# Chain of hERG (Q12809 whole entry): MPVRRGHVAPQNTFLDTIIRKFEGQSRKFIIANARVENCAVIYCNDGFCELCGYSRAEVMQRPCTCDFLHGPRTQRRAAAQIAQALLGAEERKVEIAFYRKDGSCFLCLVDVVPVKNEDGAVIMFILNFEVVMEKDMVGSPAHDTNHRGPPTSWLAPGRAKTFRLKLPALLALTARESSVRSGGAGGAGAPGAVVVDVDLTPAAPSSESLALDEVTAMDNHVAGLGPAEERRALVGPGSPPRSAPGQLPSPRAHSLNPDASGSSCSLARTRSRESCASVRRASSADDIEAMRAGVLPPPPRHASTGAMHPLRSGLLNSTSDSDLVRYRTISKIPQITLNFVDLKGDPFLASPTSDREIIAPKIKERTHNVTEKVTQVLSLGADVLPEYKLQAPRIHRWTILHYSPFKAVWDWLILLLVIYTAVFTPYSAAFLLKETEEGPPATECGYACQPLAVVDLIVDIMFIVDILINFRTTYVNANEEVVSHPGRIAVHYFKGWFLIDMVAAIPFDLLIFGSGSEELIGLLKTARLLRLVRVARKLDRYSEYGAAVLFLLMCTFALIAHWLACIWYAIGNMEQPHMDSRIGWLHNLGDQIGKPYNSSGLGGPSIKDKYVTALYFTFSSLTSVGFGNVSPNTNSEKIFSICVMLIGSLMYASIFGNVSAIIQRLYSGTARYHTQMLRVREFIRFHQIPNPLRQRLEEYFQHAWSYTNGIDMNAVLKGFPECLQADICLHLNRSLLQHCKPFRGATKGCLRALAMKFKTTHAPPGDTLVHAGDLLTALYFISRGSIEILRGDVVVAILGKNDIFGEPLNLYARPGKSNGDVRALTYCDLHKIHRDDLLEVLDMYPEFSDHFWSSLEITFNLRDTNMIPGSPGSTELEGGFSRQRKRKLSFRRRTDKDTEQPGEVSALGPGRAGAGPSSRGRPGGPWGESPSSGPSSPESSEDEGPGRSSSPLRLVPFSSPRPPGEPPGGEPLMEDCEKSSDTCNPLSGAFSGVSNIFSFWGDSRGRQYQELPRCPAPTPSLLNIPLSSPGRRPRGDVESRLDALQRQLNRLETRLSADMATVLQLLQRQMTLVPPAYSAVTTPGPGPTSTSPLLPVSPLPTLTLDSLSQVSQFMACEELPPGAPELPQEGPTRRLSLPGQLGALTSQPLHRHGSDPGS
structure (smiles),measurement,setting,value
CC(C)[C@H](Nc1ncnc2[nH]ccc12)c1ccc2c(c1)S(=O)(=O)CCC2 [ASAP-0008674],perc_inhibition (% inhibition of the binding of a ligand specific for each target),H1 (h),-3%
same,perc_inhibition (% inhibition of the binding of a ligand specific for each target),beta1 (h),11%
same,perc_inhibition (% inhibition of the binding of a ligand specific for each target),[1],1%
same,perc_inhibition (% inhibition of the binding of a ligand specific for each target),V1a (h),6%
same,perc_inhibition (% inhibition of the binding of a ligand specific for each target),5-HT1B (h),0%
same,clint,[2],14.3 µL/min/mg
same,t_half,[2],48.5 min
Cc1nn(C)cc1-c1cc2c(NC(c3ccc4c(c3)S(=O)(=O)CCC4)C(C)C)ncnc2[nH]1 (stereo not shown) [ASAP-0011446],pIC50,"SARS-CoV-2 nsp3-mac1; HTRF IC50, Figure 4B, bioactive pure enantiomer",7.68
same,pIC50,Nsp3-mac1,6.55
same,inhibition at 10 µM,H1 (h); [4],0%
same,CC50,[3],> 5 µM
same,inhibition at 10 µM,beta1 (h); [4],1%
same,inhibition at 10 µM,[1]; [4],-2%
same,inhibition at 10 µM,"V1a (h); read-out: perc_inhibition, % inhibition of the binding of a ligand specific for each target",14%
same,inhibition at 10 µM,5-HT1B (h); [4],15%
same,CC50 at 24 h,in vitro; HeLa-ACE2 cells (uninfected),> 20 µM
same,efflux ratio,"MDR1; MDCK-MDR1, efflux_ratio, In vitro MDR1-MDCKII permeability, no inhibitor",41.1
same,Papp A→B,"MDR1; MDCK-MDR1, papp_a_to_b_mean, In vitro MDR1-MDCKII permeability, no inhibitor",0.911 nm/s
same,Papp B→A,"MDR1; MDCK-MDR1, papp_b_to_a_mean, In vitro MDR1-MDCKII permeability, no inhibitor",37 nm/s
same,efflux ratio,"MDR1; MDCK-MDR1, with Verapamil, efflux_ratio_inhibitor, MDR1-MDCKII, with inhibitor Verapamil",21.8
same,Papp A→B,"MDR1; MDCK-MDR1, with Verapamil, papp_a_to_b_inhibitor_mean, MDR1-MDCKII, with inhibitor Verapamil",2.16 nm/s
same,Papp B→A,"MDR1; MDCK-MDR1, with Verapamil, papp_b_to_a_inhibitor_mean, MDR1-MDCKII, with inhibitor Verapamil",47 nm/s
same,inhibition at 10 µM,hERG,3%
CC(C)C(Nc1ncnc2[nH]ccc12)c1ccc2c(c1)S(=O)(=O)CCC2 (stereo not shown) [ASAP-0008327],pIC50,"SARS-CoV-2 nsp3-mac1; IC50, nsp3-mac1 activity, Figures 1-3 and text",6.85
same,pEC50,"SARS-CoV-2; Severe acute respiratory syndrome coronavirus 2, iPSC",< 4.30
same,EC90,SARS-CoV-2; Severe acute respiratory syndrome coronavirus 2,> 50 µM
same,pEC50,SARS-CoV-2,4.52
same,perc_max_measured,SARS-CoV-2; maximum measured response of dose series,138.005% and 187.741%
same,cc10,iPSC pneumocytes,> 50.0 µM
same,perc_max_measured,iPSC pneumocytes; highest measured response of the dose series,97.729% and 94.012%
same,perc_min_measured,iPSC pneumocytes; lowest measured response of the dose series,81.556% and 88.355%
same,CC50,in vitro,> 50 µM
same,Papp A→B,"MDR1; MDCK-MDR1, papp_a_to_b_mean, In vitro MDR1-MDCKII permeability, mean",33 nm/s
CC(C)[C@H](Nc1ncnc2[nH]c(-c3cnn(C)c3C#N)cc12)c1ccc2c(n1)OCCO2 [ASAP-0010715],perc_inhibition (% inhibition of the binding of a ligand specific for each target),H1 (h),5%
same,perc_inhibition (% inhibition of the binding of a ligand specific for each target),beta1 (h),11%
same,perc_inhibition (% inhibition of the binding of a ligand specific for each target),[1],2%
same,perc_inhibition (% inhibition of the binding of a ligand specific for each target),V1a (h),27%
same,perc_inhibition (% inhibition of the binding of a ligand specific for each target),5-HT1B (h),-11%
same,clint,[2],23.7 µL/min/mg
same,t_half,[2],29.2 min
